From patent US9353082B2, “Pharmaceutical compounds” (BIAL—PORTELA & CA, S.A., priority 2008, dated 2016)

What was measured:
[1] = target: T1, FAAH (Rattus norvegicus, UniProt P97612); assay: In vitro FAAH activity in rat brain membranes, 3H-AEA substrate, % of control; type: biochemical, Wistar rats; conditions: low value = strong inhibitor
T1 construct: Frozen brains (without cerebellum) from Wistar rats were used; from tissue; host or cells: Wistar rat brain (without cerebellum), washed membrane pellets
T1 sequence (P97612 1-579): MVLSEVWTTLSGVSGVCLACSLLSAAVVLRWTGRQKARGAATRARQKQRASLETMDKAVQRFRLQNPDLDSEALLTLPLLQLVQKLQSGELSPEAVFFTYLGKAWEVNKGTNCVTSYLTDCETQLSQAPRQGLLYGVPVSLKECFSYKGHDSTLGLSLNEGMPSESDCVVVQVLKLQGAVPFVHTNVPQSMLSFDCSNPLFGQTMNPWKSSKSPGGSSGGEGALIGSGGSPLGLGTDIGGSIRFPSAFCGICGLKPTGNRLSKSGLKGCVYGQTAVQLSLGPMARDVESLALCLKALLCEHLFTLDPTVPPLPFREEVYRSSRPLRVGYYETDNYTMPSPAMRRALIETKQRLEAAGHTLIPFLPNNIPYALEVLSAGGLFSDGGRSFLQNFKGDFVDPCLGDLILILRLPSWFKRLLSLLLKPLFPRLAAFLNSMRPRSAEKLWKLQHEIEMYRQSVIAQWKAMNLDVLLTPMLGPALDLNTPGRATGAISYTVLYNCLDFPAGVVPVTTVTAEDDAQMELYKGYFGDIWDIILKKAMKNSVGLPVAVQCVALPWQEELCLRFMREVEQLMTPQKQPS
In short: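 FAAH activity measured as 3H-ethanolamine released from 2 μM [3H]AEA over 10 min by rat brain membrane preparation, after 15 min 37 °C preincubation with test compound at 10 or 0.1 μM. Charcoal-separated supernatant scintillation-counted; values expressed as % of control minus no-protein blank.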

[2] = target: T2, monoacylglycerol lipase (MAGL) (Rattus norvegicus, UniProt Q8R431); assay: MAGL activity in rat cerebella cytosol (CRBcyt), hydrolysis of [3H] 2-OG; type: biochemical, WISTAR rats; conditions: 12.5 uM compound, remaining MAGL activity
T2 construct: cerebella cytosol (CRBcyt) fractions, previously obtained from adult WISTAR rats; from tissue; host or cells: adult Wistar rat cerebella, cytosol fraction
T2 sequence (Q8R431 1-303): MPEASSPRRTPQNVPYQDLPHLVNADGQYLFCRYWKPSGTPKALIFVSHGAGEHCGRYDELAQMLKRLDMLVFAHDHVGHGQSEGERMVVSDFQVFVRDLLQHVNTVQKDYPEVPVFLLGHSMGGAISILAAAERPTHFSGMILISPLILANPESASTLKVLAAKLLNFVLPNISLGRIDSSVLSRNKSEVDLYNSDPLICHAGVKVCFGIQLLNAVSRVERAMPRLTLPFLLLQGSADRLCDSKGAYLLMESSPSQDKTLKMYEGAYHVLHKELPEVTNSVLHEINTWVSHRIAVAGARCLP
Procedure: (§1) FAAH inhibition was determined as described above. Inhibition of monoacylglycerol lipase (MAGL) and carboxylesterase (CE) was performed according to the protocols described below. The controls for both in vitro and in vivo were the reaction mix minus the test compounds. Therefore, a low value in Table 2 below for the test compounds indicates a strong inhibitor.
MAGL activity measurement was based on rate of hydrolysis of [^3H] 2-OG (glycerol labeled) as substrate. Briefly, cerebella cytosol (CRBcyt) fractions, previously obtained from adult WISTAR rats, were diluted to appropriate assay protein concentrations in Tris-HCl buffer (10 mM, pH 7.2) containing 1 mM EDTA, and were added to assay tubes containing test compound. Blanks contained assay buffer instead of cytosol samples were used as control. […] The final assay contained 0.125% w v^−1 fatty acid-free BSA. After the incubation phase, reactions were stopped by adding 400 μL chloroform:methanol (1/1 v v^−1), vortex mixing the tubes two times and placing them on ice. Phases were separated by centrifugation and 200 μL aliquots of the methanol/buffer phase were taken and tritium content assayed by liquid scintillation spectroscopy with quench correction.

[3] = system: carboxylesterase (CE); assay: Carboxylesterase (CE) activity in rat liver microsomes (LVms), p-nitrophenyl acetate; type: biochemical; conditions: 10 uM compound, read 10 min after substrate, remaining CE activity
Procedure: as §1
CE activity measurement is based on the formation of p-nitrophenol from p-nitrophenyl acetate. Briefly, in 96-well plates 8 μg/ml of rat or mouse liver microsomes (LVms) were incubated with 10 μM FAAH inhibitors for 15 min and then the substrate, p-nitrophenyl acetate, was added to a final concentration of 1 mM. The plate was read at 405 nm 10 min after substrate addition for the appearance of p-nitrophenol using a spectrophotometer. The carboxylesterase activity in microsome extracts without inhibitor added were set at 100% as control and the remaining CE activities after incubation with inhibitors were calculated relative to the control.

FAAH 10 uM ([1]; 10 uM compound, rat brain membranes, 100 = no measurable inhibition): 16 % of control
In Vitro FAAH activity, 10 uM ([1]; 10 uM test compound): 16 % of control
MAGL Rat CRBcyto 12.5 uM 8 min [2]: 87 % of control
CE Rat LVms 10 uM 10 min [3]: 94.7 % of control
Compound: COc1cccc(-c2cn(C(=O)N3CCCc4ccccc43)cn2)c1 [Compound 39, (3,4-dihydroquinolin-1(2H)-yl)(4-(3-methoxyphenyl)-1H-imidazol-1-yl)methanone]
